Tests used:
[1] = tested on: SMN2 minigene mRNA (SMN2-A minigene) in HEK293H cells; experiment: SMN2 minigene mRNA splicing RT-qPCR assay in cultured cells; assay type: cell-based, human; settings: Homo sapiens, HEK293-H; concentration increasing full length SMN2 mRNA 1.5-fold relative to vehicle-treated cells; HEK293H cells with SMN2-A minigene, 24 hours, 7-point concentration data; read-out: EC1.5x for production of full length SMN2 mRNA
Summary of the method: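 HEK293H cells stably carrying SMN2-A minigene treated with compounds (7-point, 3.16-fold dilutions, duplicates) for 24 h at 37 °C. Full-length exon 7-containing minigene mRNA measured by multiplex RT-qPCR with GAPDH, normalized and expressed relative to vehicle (modified ΔΔCt); EC1.5× is concentration giving 1.5-fold increase.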

[2] = tested on: Smn protein in SMA patient fibroblast cells (GM03813); experiment: Smn protein assay in cultured cells (SMN HTRF); assay type: cell-based, human; settings: SMA patient fibroblast cells, 48 hours; for EC1.5x for Smn protein expression: 7-point concentration curve, SMN HTRF, concentration producing 1.5 times Smn protein vs DMSO vehicle control; for maximum fold (Fold) increase of Smn protein: 7-point concentration data, fold relative to vehicle control
Summary of the method: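 SMA patient fibroblasts (5,000/well, DMEM-10% FBS) treated 48 h at 37° C with 7-point, 3.16-fold compound series in triplicate; lysates read by SMN HTRF (665/620 nm ratio). Fold Smn increase over DMSO vehicle derived; EC1.5× is concentration giving 1.5-fold Smn, with maximum fold also reported.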

| SMILES | melting point [°C] | EC (1.5-fold increase) [1] [µM] | EC1.5x for Smn protein expression [2] | maximum fold (Fold) increase of Smn protein [2] |
| --- | --- | --- | --- | --- |
| CCN1CCC(c2ccc3nc(-c4cc5c(C)nc(C)cn5n4)cc(=O)n3c2)CC1 [Compound 454, 2-(4,6-dimethylpyrazolo[1,5-a]pyrazin-2-yl)-7-(1-ethylpiperidin-4-yl)-4H-pyrido[1,2-a]pyrimidin-4-one] | 170 to 172 | < 0.1 | **** (an EC1.5x≤0.3 μM is indicated by four stars (****)) | ***** (a fold increase >1.65 is indicated by five stars (*****)) |
| Cc1cn2nc(-c3cc(=O)n4cc(N5CCN(C)CC5)cc(C)c4n3)cc2c(C)n1 [Compound 457, 2-(4,6-dimethylpyrazolo[1,5-a]pyrazin-2-yl)-9-methyl-7-(4-methylpiperazin-1-yl)-4H-pyrido[1,2-a]pyrimidin-4-one] | 262 to 271 | < 0.1 | **** (an EC1.5x≤0.3 μM is indicated by four stars (****)) | ***** (a fold increase >1.65 is indicated by five stars (*****)) |
| Cc1cn2nc(-c3cc(=O)n4cc(N5CCN6CCC[C@@H]6C5)cc(C)c4n3)cc2c(C)n1 [Compound 458, 2-(4,6-dimethylpyrazolo[1,5-a]pyrazin-2-yl)-7-[(8aR)-hexahydropyrrolo[1,2-a]pyrazin-2(1H)-yl]-9-methyl-4H-pyrido[1,2-a]pyrimidin-4-one] | 244 to 256 | < 0.1 | *** (an EC1.5× between >0.3 μM and ≤1 μM is indicated by three stars (***)) | **** (a fold increase between >1.5 and ≤1.65 is indicated by four stars (****)) |
| Cc1cn2nc(-c3cc(=O)n4cc(N5CCC(N(C)C)CC5)cc(C)c4n3)cc2c(C)n1 [Compound 459, 7-[4-(dimethylamino)piperidin-1-yl]-2-(4,6-dimethylpyrazolo[1,5-a]pyrazin-2-yl)-9-methyl-4H-pyrido[1,2-a]pyrimidin-4-one] | 231 to 241 | < 0.1 | – | *** (a fold increase between >1.35 and ≤1.5 is indicated by three stars (***)) |
| CCN1CC=C(c2ccc3nc(-c4ccc5c(cnn5C)c4)cc(=O)n3c2)CC1 [Compound 463, 7-(1-ethyl-1,2,3,6-tetrahydropyridin-4-yl)-2-(1-methyl-1H-indazol-5-yl)-4H-pyrido[1,2-a]pyrimidin-4-one] | 172 to 174 | < 0.1 | *** (an EC1.5× between >0.3 μM and ≤1 μM is indicated by three stars (***)) | ***** (a fold increase >1.65 is indicated by five stars (*****)) |
| CCCN1CC=C(c2ccc3nc(-c4ccc5c(cnn5C)c4)cc(=O)n3c2)CC1 [Compound 464, 2-(1-methyl-1H-indazol-5-yl)-7-(1-propyl-1,2,3,6-tetrahydropyridin-4-yl)-4H-pyrido[1,2-a]pyrimidin-4-one] | 152 to 154 | 0.1 to 0.3 | ** (an EC1.5× between >1 μM and ≤3 μM is indicated by two stars (**)) | **** (a fold increase between >1.5 and ≤1.65 is indicated by four stars (****)) |
| CN(C)c1ccc(-c2cc(=O)n3cc(C4CCNCC4)ccc3n2)cn1 [Compound 465, 2-[6-(dimethylamino)pyridin-3-yl]-7-(piperidin-4-yl)-4H-pyrido[1,2-a]pyrimidin-4-one] | 208 to 210 | 0.3 to 1 | – | *** (a fold increase between >1.35 and ≤1.5 is indicated by three stars (***)) |
| CCN1CCN(c2ccc3nc(-c4cc5cnc(C)cn5n4)cc(=O)n3c2)CC1 [Compound 466, 7-(4-ethylpiperazin-1-yl)-2-(6-methylpyrazolo[1,5-a]pyrazin-2-yl)-4H-pyrido[1,2-a]pyrimidin-4-one] | 220 to 230 | < 0.1 | *** (an EC1.5× between >0.3 μM and ≤1 μM is indicated by three stars (***)) | ***** (a fold increase >1.65 is indicated by five stars (*****)) |
| Cc1cn2nc(-c3cc(=O)n4cc(N5CCC(N(C)C)CC5)ccc4n3)cc2cn1 [Compound 468, 7-[4-(dimethylamino)piperidin-1-yl]-2-(6-methylpyrazolo[1,5-a]pyrazin-2-yl)-4H-pyrido[1,2-a]pyrimidin-4-one] | 240 to 242 | < 0.1 | *** (an EC1.5× between >0.3 μM and ≤1 μM is indicated by three stars (***)) | **** (a fold increase between >1.5 and ≤1.65 is indicated by four stars (****)) |
| CCCN1CCC(c2ccc3nc(-c4ccc5nc(C)cn5c4)cc(=O)n3c2)CC1 [Compound 470, 2-(2-methylimidazo[1,2-a]pyridin-6-yl)-7-(1-propylpiperidin-4-yl)-4H-pyrido[1,2-a]pyrimidin-4-one] | 159 to 161 | < 0.1 | **** (an EC1.5x≤0.3 μM is indicated by four stars (****)) | **** (a fold increase between >1.5 and ≤1.65 is indicated by four stars (****)) |

Further lines, with some results ahead:

| melting point [°C] | SMILES | EC (1.5-fold increase) [1] [µM] | EC1.5x for Smn protein expression [2] | maximum fold (Fold) increase of Smn protein [2] |
| --- | --- | --- | --- | --- |
| 220 to 222 | Cc1cn2nc(-c3cc(=O)n4cc(C5CCN(C)CC5)ccc4n3)cc2c(C)n1 [Compound 453, 2-(4,6-dimethylpyrazolo[1,5-a]pyrazin-2-yl)-7-(1-methylpiperidin-4-yl)-4H-pyrido[1,2-a]pyrimidin-4-one] | < 0.1 | **** (an EC1.5x≤0.3 μM is indicated by four stars (****)) | ***** (a fold increase >1.65 is indicated by five stars (*****)) |
| 180 to 184 | CCc1cc(N2CCN3CCC[C@@H]3C2)cn2c(=O)cc(-c3ccc(OC)c(OC)c3)nc12 [Compound 455, 2-(3,4-dimethoxyphenyl)-9-ethyl-7-[(8aR)-hexahydropyrrolo[1,2-a]pyrazin-2(1H)-yl]-4H-pyrido[1,2-a]pyrimidin-4-one] | 0.1 to 0.3 | – | ** (a fold increase between >1.2 and ≤1.35 is indicated by two stars (**)) |
| 178 to 182 | COCCNC1CCN(c2cc(C)c3nc(-c4ccc(OC)c(OC)c4)cc(=O)n3c2)CC1 [Compound 456, 2-(3,4-dimethoxyphenyl)-7-{4-[(2-methoxyethyl)amino]piperidin-1-yl}-9-methyl-4H-pyrido[1,2-a]pyrimidin-4-one] | 0.1 to 0.3 | – | *** (a fold increase between >1.35 and ≤1.5 is indicated by three stars (***)) |
| 227 to 230 | Cc1cn2cc(-c3ccc4nc(C5CCN(C)CC5)cc(=O)n4c3)ccc2n1 [Compound 460, 7-(2-methylimidazo[1,2-a]pyridin-6-yl)-2-(1-methylpiperidin-4-yl)-4H-pyrido[1,2-a]pyrimidin-4-one] | 0.1 to 0.3 | *** (an EC1.5× between >0.3 μM and ≤1 μM is indicated by three stars (***)) | **** (a fold increase between >1.5 and ≤1.65 is indicated by four stars (****)) |
| 215 to 218 | Cc1cn2cc(-c3ccc4nc(C5CCN(C(C)C)CC5)cc(=O)n4c3)ccc2n1 [Compound 461, 7-(2-methylimidazo[1,2-a]pyridin-6-yl)-2-[1-(propan-2-yl)piperidin-4-yl]-4H-pyrido[1,2-a]pyrimidin-4-one] | 0.3 to 1 | ** (an EC1.5× between >1 μM and ≤3 μM is indicated by two stars (**)) | **** (a fold increase between >1.5 and ≤1.65 is indicated by four stars (****)) |
| 235 to 238 | Cc1cn2cc(-c3ccc4nc(C5CCN(C)CC5)cc(=O)n4c3)cc(F)c2n1 [Compound 462, 7-(8-fluoro-2-methylimidazo[1,2-a]pyridin-6-yl)-2-(1-methylpiperidin-4-yl)-4H-pyrido[1,2-a]pyrimidin-4-one] | < 0.1 | **** (an EC1.5x≤0.3 μM is indicated by four stars (****)) | ***** (a fold increase >1.65 is indicated by five stars (*****)) |
| 240 to 250 | Cc1cn2nc(-c3cc(=O)n4cc(N5CCN6CCC[C@@H]6C5)ccc4n3)cc2cn1 [Compound 467, 7-[(8aR)-hexahydropyrrolo[1,2-a]pyrazin-2(1H)-yl]-2-(6-methylpyrazolo[1,5-a]pyrazin-2-yl)-4H-pyrido[1,2-a]pyrimidin-4-one] | < 0.1 | **** (an EC1.5x≤0.3 μM is indicated by four stars (****)) | ***** (a fold increase >1.65 is indicated by five stars (*****)) |
| 254 to 256 | Cc1cn2nc(-c3cc(=O)n4cc(N5CCN(CCO)CC5)ccc4n3)cc2cn1 [Compound 469, 7-[4-(2-hydroxyethyl)piperazin-1-yl]-2-(6-methylpyrazolo[1,5-a]pyrazin-2-yl)-4H-pyrido[1,2-a]pyrimidin-4-one] | 0.1 to 0.3 | *** (an EC1.5× between >0.3 μM and ≤1 μM is indicated by three stars (***)) | ***** (a fold increase >1.65 is indicated by five stars (*****)) |

Source: patent publication US11753407B2, “Compounds for treating spinal muscular atrophy” (PTC Therapeutics, Inc., priority 2012, dated 2023)
